Literature values in paper PMC8287861 (Frontiers in Microbiology, 2021).
≈ marks a conversion by molar mass, not a printed value. Where two headings read alike, the source gives them in different places.

Experiments:
[1] = test system: KPC-2; set-up: method as in Tsivkovski et al. (2020); settings: KPC-2, class A; ref Tsivkovski et al. (2020)
[2] = test system: CTX-M-14; set-up: method as in Tsivkovski et al. (2020); settings: CTX-M-14, class A; ref Tsivkovski et al. (2020)
[3] = test system: CTX-M-15; set-up: method as in Tsivkovski et al. (2020); settings: CTX-M-15, class A; ref Tsivkovski et al. (2020)
[4] = test system: SHV-12; settings: SHV-12, class A; ref Tsivkovski et al. (2020)
[5] = test system: P99; set-up: method as in Tsivkovski et al. (2020); settings: P99, class C; ref Tsivkovski et al. (2020)
[6] = test system: OXA-48; set-up: method as in Tsivkovski et al. (2020); settings: OXA-48, class D; ref Tsivkovski et al. (2020)
[7] = test system: NDM-1; set-up: method as in Tsivkovski et al. (2020); settings: class B, ref Tsivkovski et al. (2020)
[8] = test system: VIM-1; set-up: method as in Tsivkovski et al. (2020); settings: VIM-1, class B; ref Tsivkovski et al. (2020)
[9] = test system: IMP-1; set-up: method as in Tsivkovski et al. (2020); settings: class B, ref Tsivkovski et al. (2020)
[10] = test system: IMP-26; set-up: method as in Tsivkovski et al. (2020); settings: class B, ref Tsivkovski et al. (2020)
[11] = test system: KPC-2
[12] = test system: OXA-23; set-up: method as in Tsivkovski et al. (2020); settings: OXA-23, class D; ref Tsivkovski et al. (2020)
[13] = target: KPC-3; set-up: method as in Tsivkovski et al. (2020); settings: ref Tsivkovski et al. (2020)
[14] = target: BKC-1; set-up: method as in Tsivkovski et al. (2020); settings: ref Tsivkovski et al. (2020)
[15] = target: FRI-1; set-up: method as in Tsivkovski et al. (2020); settings: ref Tsivkovski et al. (2020)
[16] = target: SME-2; set-up: method as in Tsivkovski et al. (2020); settings: ref Tsivkovski et al. (2020)
[17] = target: CTX-M-15; set-up: method as in Tsivkovski et al. (2020); settings: ref Tsivkovski et al. (2020)
[18] = target: SHV-12; set-up: method as in Tsivkovski et al. (2020); settings: ref Tsivkovski et al. (2020)
[19] = target: TEM-43; set-up: method as in Tsivkovski et al. (2020); settings: ref Tsivkovski et al. (2020)
[20] = target: P99; set-up: method as in Tsivkovski et al. (2020); settings: ref Tsivkovski et al. (2020)
[21] = target: OXA-48; set-up: method as in Tsivkovski et al. (2020); settings: ref Tsivkovski et al. (2020)
[22] = target: OXA-23; set-up: method as in Tsivkovski et al. (2020); settings: ref Tsivkovski et al. (2020)
[23] = target: OXA-24; set-up: method as in Tsivkovski et al. (2020); settings: ref Tsivkovski et al. (2020)
[24] = target: OXA-58; set-up: method as in Tsivkovski et al. (2020); settings: ref Tsivkovski et al. (2020)
[25] = target: VIM-1; set-up: method as in Tsivkovski et al. (2020); settings: ref Tsivkovski et al. (2020)
[26] = target: IMP-1; set-up: method as in Tsivkovski et al. (2020); settings: ref Tsivkovski et al. (2020)
[27] = test system: isogenic strains of P. aeruginosa that produced KPC; set-up: method as in Lomovskaya et al., 2020a; settings: ref Lomovskaya et al., 2020a; for PV50: potency to enhance biapenem activity;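 as to PV50: read from a curve of biapenem MIC plotted against inhibitor concentration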
[28] = test system: KPC-producing porin/efflux mutants of K. pneumoniae; settings: ref Lomovskaya et al.
[29] = test system: Acinetobacter baumannii mutants producing OXA-23; set-up: method as in Lomovskaya et al., 2020a; settings: overexpression of efflux pumps; ref Lomovskaya et al., 2020a
[30] = test system: carbapenem-resistant strains of Enterobacterales (CRE); set-up: method as in Nelson et al. (2020a); settings: with meropenem, ref Nelson et al. (2020a)
[31] = test system: ESBL and CRE producing strains of Enterobacterales; set-up: method as in Nelson et al. (2020a; 2020b); settings: ref Nelson et al. (2020a; 2020b)
[32] = test system: carbapenem resistant Acinetobacter baumannii; settings: in combination with meropenem; majority of the subsets of strains; ref Nelson et al., 2020b
[33] = set-up: method as in Hecker et al., 2020; settings: rats, doses of 30–100 mg/kg; ref Hecker et al., 2020
[34] = set-up: method as in Sabet et al., 2020; settings: plasma QPX7728 exposure associated with 8 μg/ml; ref Sabet et al., 2020
[35] = test system: β-lactamases
[36] = set-up: method as in Hecker et al., 2020; settings: ref Hecker et al. (2020)
[37] = inactivation of OmpK35 and OmpK36 and increased efflux, 2020a
[38] = same mutations (OmpK35, OmpK36, increased efflux), 2017

## NC(=O)[C@@H]1CC[C@@H]2CN1C(=O)N2OS(=O)(=O)O [Avibactam, avibactam]
[1]
  IC50: […]
[2]
  IC50: 1.4 ± 0.4 nM
[3]
  IC50: 0.56 ± 0.25 nM
[4]
  IC50: 0.61 ± 0.19 nM
[5]
  IC50: 26 ± 7 nM
[6]
  IC50: […]
[7]
  IC50: > 160000 nM
[8]
  IC50: > 160000 nM
[9]
  IC50: > 160000 nM
[10]
  IC50: > 160000 nM
[11]; ref Ehmann et al., 2013
  residence time: ~2 h

## O=C(O)c1c(F)ccc2c1OB(O)[C@@H]1C[C@H]21 [QPX7728]
[1]
  IC50: 2.9 ± 0.4 nM
[2]
  IC50: 0.94 ± 0.2 nM
[3]
  IC50: 1.2 ± 0.1 nM
[4]
  IC50: 1.9 ± 0.6 nM
[5]
  IC50: 22 ± 6 nM
[6]
  IC50: 1.1 ± 0.4 nM
[12]
  IC50: 1.2 ± 0.4 nM
[8]
  IC50: 14 ± 4 nM
[9]
  IC50: 610 ± 70 nM
[11]; ref Tsivkovski et al. (2020)
  Kd: 0.25 ± 0.03 nM
[13]
  Kd: 0.31 ± 0.06 nM
[14]
  Kd: 0.06 ± 0.005 nM
[15]
  Kd: 0.11 ± 0.01 nM
[16]
  Kd: 0.15 ± 0.02 nM
[17]
  Kd: 0.11 ± 0.02 nM
[18]
  Kd: 28 ± 4 nM
[19]
  Kd: 0.17 ± 0.02 nM
[20]
  Kd: 0.53 ± 0.06 nM
[21]
  Kd: 0.13 ± 0.01 nM
[22]
  Kd: 1.6 ± 0.2 nM
[23]
  Kd: 0.58 ± 0.1 nM
[24]
  Kd: 3.2 ± 0.3 nM
[25]; VIM-1 (text b23 calls it Ki)
  Kd: 7.5 ± 2.1 nM
[25]; VIM-1, competitive inhibitor
  Ki: ~7 nM
[26]; IMP-1 (text b23 calls it Ki)
  Kd: 240 ± 30 nM
[26]; IMP-1, competitive inhibitor
  Ki: ~240 nM
[27]; PAM4126, mexR (MexAB-OprM)
  PV50: 2 µg/mL
[27]; PAM4129, nfxB (MexCD-OprJ)
  PV50: 0.5 µg/mL
[27]; PAM4132, mexT (MexEF-OprM)
  PV50: 1 µg/mL
[27]; PAM4150, mexZ (MexXY-OprM)
  PV50: 1 µg/mL
[27]; PAM4224, Wild-type
  PV50: 1 µg/mL
[27]; PAM4365, MexA::Tet
  PV50: 1 µg/mL
[27]; mexAB-oprM efflux operon overexpressed
  reduction in potency: No more than two-fold reduction in potency
[27]
  effect of inactivation of the carbapenem porin OprD on potency: did not have any effect
[28]; before porin/efflux mutations, 2020a
  potency to completely inhibit KPC: 0.125 mg/L (≈ 0.563 µM)
[28]; [37]
  potency to completely inhibit KPC: 4 mg/L (≈ 18 µM)
  reduction of the potency to completely inhibit KPC: ca. 32 fold
[29]
  effect of efflux on potency to inhibit β-lactamase: no effect of efflux on the potency
[30]; 598 CRE, breakpoint of 8 μg/ml
  TPC90: 4 µg/mL
[30]; subsets with carbapenemase production and non-β-lactamase-mediated resistance mechanisms
  TPC90: 4 to 8 µg/mL
[31]; in combination with aztreonam at 8 μg/ml (FDA susceptible breakpoint)
  TPC90: 4 µg/mL
[31]; in combination with cefepime at 8 μg/ml (FDA susceptible breakpoint)
  TPC90: 4 µg/mL
[32]
  TPC90: less than or equal to 8 μg/ml
[33]
  oral bioavailability: 43–53%
[34]
  efficacy of plasma exposure: efficacious in animal models of infection

## COc1ccc2c(c1C(=O)O)OB(O)CC2 [RPX7610]
[35]; ref Hecker et al. (2020)
  effect of efflux and porin mutations: minimally affected by efflux and porin mutations
  β-lactamase inhibition (in words): potent inhibition of all target β-lactamases
[36]
  metabolic stability (in words): metabolic liability

## O=C(NC1CCNCC1)[C@@H]1CC[C@@H]2CN1C(=O)N2OS(=O)(=O)O [Relebactam, relebactam]
[2]
  IC50: 34 ± 10 nM
[3]
  IC50: 76 ± 3 nM
[4]
  IC50: 330 ± 50 nM
[5]
  IC50: 36 ± 4 nM
[7]
  IC50: > 160000 nM
[8]
  IC50: > 160000 nM
[9]
  IC50: > 160000 nM
[10]
  IC50: > 160000 nM
[11]; ref Papp-Wallace et al., 2018
  residence time: 1.5 h

## O=C(O)C[C@@H]1CC[C@H](NC(=O)Cc2cccs2)B(O)O1 [Vaborbactam, vaborbactam]
[1]
  IC50: 110 ± 30 nM
[2]
  IC50: 110 ± 40 nM
[3]
  IC50: 92 ± 13 nM
[4]
  IC50: 56 ± 11 nM
[5]
  IC50: 88 ± 38 nM
[7]
  IC50: > 160000 nM
[8]
  IC50: > 160000 nM
[9]
  IC50: > 160000 nM
[10]
  IC50: > 160000 nM
[11]; ref Tsivkovski and Lomovskaya, 2019
  residence time: ~6 h
[27]; PAM4126, mexR (MexAB-OprM)
  PV50: 64 µg/mL
[27]; PAM4129, nfxB (MexCD-OprJ)
  PV50: 4 µg/mL
[27]; PAM4132, mexT (MexEF-OprM)
  PV50: >64 µg/mL
[27]; PAM4150, mexZ (MexXY-OprM)
  PV50: 8 µg/mL
[27]; PAM4224, Wild-type
  PV50: 8 µg/mL
[27]; PAM4365, MexA::Tet
  PV50: 0.5 µg/mL
[27]; overproduction of the MexAB-OprM or the MexEF-OprN efflux pumps
  reduction in potency: ≥ 8 fold
[28]; before porin/efflux mutations, 2017
  potency to completely inhibit KPC: 0.25 mg/L (≈ 0.841 µM)
[28]; [38]
  potency to completely inhibit KPC: 64 mg/L (≈ 215 µM)
  reduction of the potency: 256 fold
[35]; fold less potent, ref Tsivkovski and Lomovskaya, 2019
  potency against other class A or class C beta lactamases compared to KPC enzymes: 10–50 fold
